Key:
Format in all cases: cell-based
[1] = test system: human bladder carcinoma T24P cells; test: Cell proliferation, T24P (Example 4); details: compound in 2-hydroxypropyl-β-cyclodextrin
Method: (§1) Human ovary cancer A2780 cells lines were seeded at a density of 5000 cells/well, human melanoma A375 cells were plated at a density of 2,500 cells/well, human colon carcinoma HCT15 cells were plated at a density of 3,000 cells/well, human prostate carcinoma PC3 cells were plated at a density of 1,500 cells/well, human breast carcinoma MCF7 cells were plated at a density of 5,000 cells/well, human breast carcinoma MDA MB 468 cells were plated at a density of 6,000 cells/well, human myeloma U266, RPMI8226 and CAG cells were plated at a density of 10,000 cells/well. All cells were plated in 96-well plates in 90 μl growth medium containing 10% FCS, 100 units/ml penicillin and 100 μg/ml streptomycin. Compound 3 was added a day later in […] of 1% DMSO in DDW to obtain final concentrations of 0, 0.1, 0.3, 1, 3, and 10 μM. The final concentration of DMSO (0.1% DMSO) was kept constant in all samples. Following exposure of the cells to compound 3 for 72 hours at 37° C., adhered cells were fixed in 0.5% gluteraldehyde in medium for 10 min, washed three times with DDW, once with 0.1M sodium borate buffer pH 8.5 and stained with 1% methylene blue dissolved in 0.1M borate buffer solution for 60 min. Excess dye was washed out and cell-bound dye was eluted with 200 μl/well of 0.1M HCl. The optical density values were read at 630 nm in ELISA plate reader. Non-adhered cells were exposed to WST-1 reagent for 5 hours following 72 hours treatment with the inhibitors, and optical density values were read at 630 nm in ELISA plate reader. The data was analyzed in Microsoft Excel, using the vehicle control as 100% proliferation. The assays were performed in triplicates. The values of IC50 were derived from the dose-dependent growth curves obtained.
(§2) Cell proliferation assay was performed as described in Example 2. […]

[2] = test system: human prostate carcinoma PC3MM2 cells; test: Cell proliferation, PC3MM2 (Example 4); details: PC3MM2, prostate cancer, compound in 2-hydroxypropyl-β-cyclodextrin
Method: as §1, §2

[3] = test system: human multiple myeloma CAG cells; test: Cell proliferation, CAG (Example 4); details: compound in 2-hydroxypropyl-β-cyclodextrin
Method: as §1, §2

[4] = test system: human gastric cancer NCI-N87 cells; test: Cell proliferation, NCI-N87 (Example 4); details: compound in 2-hydroxypropyl-β-cyclodextrin
Method: as §1, §2

[5] = test system: human lymphoma KARPAS cells; test: Cell proliferation, KARPAS (Example 4); details: compound in 2-hydroxypropyl-β-cyclodextrin
Method: as §1, §2

[6] = test system: human breast cancer MDA-MB-468 cells; test: Cell proliferation, MDA-MB-468 (Example 4); details: MDA-MB-468, breast cancer, compound in 2-hydroxypropyl-β-cyclodextrin
Method: as §1, §2

[7] = test system: human multiple myeloma MM1S cells; test: Cytotoxicity of combination with Velcade in MM1S cells (CellTiter Glo); details: for α/a+β/b (synergism if <1): combination with Velcade, three days; for combined effect with Velcade versus Bliss additive effect: compound 0.1 or 0.2 M (so in the source), 1 and 1.5 nM Velcade, FIGS. 8 and 9
Method: Human multiple myeloma MM1S cells were plated at a density of 10,000 cells/well in 96-well plates in 90 μl growth medium containing 10% FCS, 100 units/ml penicillin and 100 μg/ml streptomycin. Velcade® (i.e. bortezomib or PS-341) was obtained from LC Laboratories. Compounds 3 and 5 were added a day later in 5 μl of 0.7% 2-hydroxypropyl-β-cyclodextrin in DDW to the multiple myeloma cell plates to obtain final concentrations of […]. Velcade® was added in 5 μl of 1% DMSO to obtain final concentrations of 0, 0.5, 1 and 1.5 nM. Three days later CellTiter Glo reagent (100 μl/well) was added to the medium (1:1), shaked, and following 10 min incubation transferred to 96-well white plates and read in a Luminometer. The data was analyzed in Microsoft Excel, using the vehicle control as 0% cytotoxicity. The assays were performed in triplicates. Cytotoxicity (%) was calculated as follows: [(absorbance of control cells—absorbance of drug-treated cells)/absorbance of control cells]×100. In FIGS. 8 and 9 the Bliss additivism model (Cardone et al. Science (1998), 282: 1318-1321) was used to calculate the combined effect using the following formula: Ebliss=EA+EB−EA×EB, where EA and EB are the fractional inhibitions obtained by drug A alone and drug B alone at specific concentrations. […] The synergic effect was calculated in an additional method in which the existence of α/a+β/b<1 was tested (a is the IC50 of drug A in the absence of drug B, α is the IC50 of drug A in the presence of drug B, b is the IC50 of drug B in the absence of drug A, β is the IC50 of drug B in the presence of drug A).

[8] = test system: human prostate carcinoma DU145 cells; test: Cell proliferation, DU145 (Example 4); details: DU-145, DU145, prostate cancer, compound in 2-hydroxypropyl-β-cyclodextrin
Method: as §1, §2

For `O=c1c(O)cc2cnc(/C=C/c3cc(O)c(O)c(Br)c3)sc-2c1O` [Compound 3], the IC50 [1] was 6000 nM, the IC50 [2] was 2300 nM and the IC50 [3] was 900 nM. For the same molecule, the IC50 [4] was 4500 nM, the IC50 [5] was 500 nM and the IC50 [6] was 4700 nM. The “α/a+β/b (synergism if <1)” value [7] was 0.7, the “combined effect with Velcade versus Bliss additive effect” value [7] was “strong synergistic effect” and the IC50 [8] was 2300 nM.
Molecule `O=c1c(O)cc2cnc(/C=C/c3ccc(O)c(O)c3Br)sc-2c1O` [Compound 5] has an IC50 [1] of 6500 nM, an IC50 [2] of 1800 nM and an IC50 [3] of 700 nM. The IC50 [4] was 4000 nM, the IC50 [5] was 900 nM and the IC50 [6] was 2900 nM. For the same molecule, the “α/a+β/b (synergism if <1)” value [7] was 0.6, the “combined effect with Velcade versus Bliss additive effect” value [7] was “strong synergistic effect” and the IC50 [8] was 2700 nM.

— US9073880B2, “2-(2-phenylethenyl) 1,3-benzodiazepine derivatives useful for the treatment of cancer” (Yissum Research Development Company of the Hebrew …, priority 2010, dated 2015)
